Where two headings read alike, the source gives them in different places.
Key:
toxicity, Irwin's test = assay type: in vivo; settings: i.p.; death of two animals out of three within 48 hours
Description: Progressive doses of the compound to be tested are administered intraperitoneally to groups of three mice until the lethal dose is reached (dose which causes the death of two animals out of three within 48 hours).

[1] = test system: anaphylactic release of histamine, guinea-pig lung sections; assay: potentiation of the inhibition of anaphylactic histamine release by isoprenaline; assay type: cell-based, Dunkin-Hartley guinea-pigs; settings: with isoprenaline 10^-7 mole per liter
Description: (§1) Dunkin-Hartley guinea-pigs which are first passively sensitized by an intravenous injection of 1 ml of isologous antiovalbumin serum are used. Twenty-four hours after the injection, the lungs are then perfused with a Tyrode buffer to evacuate the blood, and then removed and cut into sections of 1 mm. These sections are divided up into test tubes (3 sections per tube) to give 10 experimental groups of lung sections per guinea-pig. A "positive" control group of lung sections is stimulated by addition of an ovalbumin solution (0.1 mg/ml) to induce the anaphylactic release of histamine and serves to determine the maximum amount of histamine (100%) which can be released. A "negative" control group which is not stimulated by ovalbumin serves to determine the naturally released amount of histamine (spontaneous release). In three other groups, the lung sections are incubated at 37° C. for 30 minutes in the ovalbumin solution in the presence of three different doses of the compound to be tested (one dose per group). […] At this dose, isoprenaline inhibits the release of histamine by 30 to 40%, which is verified on a control group treated only with isoprenaline alone at this dose. In addition, a supplementary control group which is not stimulated by ovalbumin is used to detect a possible spontaneous release of histamine by the highest dose of the compound tested. In each group, the histamine released in the incubation medium is measured by spectrofluorometry (D. P. EVANS et al., Life Sci., 12, (1973), 327-336).

[2] = test system: bronchospasm induced by histamine; assay: bronchospasmolytic activity (Konzett and Roessler), bronchospasm induced by histamine; assay type: in vivo, Dunkin-Hartley guinea-pig; settings: Cavia porcellus, read-out: Doses (ID50), Histamine
Description: (§2) This activity was measured in the Dunkin-Hartley guinea-pig by the method of H. KONZETT and […] (Naunyn Schmiedebergs Arch. exp. Path. […] The anesthetized (urethane) and curarized (gallamine) guinea-pig is placed under assisted respiration. The endotracheal pressure is recorded. […] The compound to be tested is also administered intravenously two minutes before the administration of the spasmogen and then in 3 to 4 cumulative doses in increasing amounts at intervals of 15 minutes. Six animals per compound to be tested and per spasmogen are used.

[3] = test system: amnesia induced by scopolamine; assay: multiple-trial passive avoidance: mnemic retention, amnesia induced by scopolamine
Description: To this end, the method of multiple-trial passive avoidance has been used. […] The test is carried out on male Sprague-Dawley rats (160-200 g). which are kept in standard cages throughout the experiment. The apparatus used is a transparent square cage with 35 cm sides and 25 cm high, fitted with a grid floor which can be electrified. A rubber insulating mat (10×17 cm) is placed on the floor in one of the corners of the cage.
Each animal is subjected to four tests at times 0, 4, 24 and 28 hours. In the first test (time 0), the animal is placed on the rubber mat and the time which it takes to decide to leave this position to explore the cage is recorded. After 20 seconds of exploration, the rat receives an electric shock (3 seconds duration) in the paws, causing an escape reaction. The rat is immediately removed from the apparatus and replaced in its original cage. In the course of the three subsequent tests (times: 4, 24 and 28 hours), the animal is replaced on the rubber mat and the time taken to leave this position is recorded. As soon as the four paws of the animal rest on the grid, it receives an electric shock and is removed immediately from the apparatus.
At the start of the experiment, the rats are divided into 4 homogeneous groups of 15 animals. Thirty minutes before each test, each group of animals is subjected to a predetermined treatment:
Groups 1 and 2 are used in the first experiment (learning) and groups 3 and 4 in the second experiment (mnemic retention).
The differences found are analyzed statistically by the Mann-Whitney method.

[4] = multiple-trial passive avoidance: learning; assay type: in vivo, male Sprague-Dawley rats
Description: To evaluate whether a compound can promote learning, the following test is carried out. […] Rats which remain on the mat for this period have acquired the avoidance reflex and are replaced in their original cage without receiving the electric shock. […] The results obtained in the test used to evaluate learning are given in columns 3 and 4. […] The results were analyzed by the Student test.

[5] = test system: bronchospasm induced by serotonin; assay: bronchospasmolytic activity (Konzett and Roessler), bronchospasm induced by serotonin; assay type: in vivo, Dunkin-Hartley guinea-pig; settings: Cavia porcellus, read-out: Doses (ID50), Serotonin
Description: as §2

[6] = test system: plantar edema induced by immune complexes; assay: "reverse passive Arthus" (RPA) test, anti-inflammatory and anti-edema activity; assay type: in vivo, Sprague-Dawley rat; settings: Rattus norvegicus, intravenous
Description: The reaction between a soluble antigen and antibodies in the organism may lead to an acute inflammatory reaction accompanied by release of histamine, modification of vascular permeability and formation of a localized edema. […] To this end, the Arthus reaction is induced by subplantar administration of 0.1 ml of heterologous antivalbumin reaginic serum into the right hind paw and by simultaneous intravenous injection of 1 ml/kg ovalbumin (25 mg/ml). The compound to be tested is administered intravenously 30 seconds before induction of the Arthus reaction, in a least 3 different doses. A group of 6 rats is used per dose of compound to be tested. The volume of the paw is measured by plethysmometry before the Arthus reaction and 3 to 5 hours after induction of the Arthus reaction, both in the control animals and in the treated animals. The effect of a compound on the reduction in the edema for each dose and at each measurement time (3 hours and 5 hours) is expressed in % of the edema observed in the control animals. The doses of the compounds (ID30 in μmole/kg) which inhibit by 30%, on average over all the animals, the volume of the edema observed in the control animals are given in Table VII below.

[7] = test system: longitudinal muscles of the ileum contracted by histamine; assay: potentiation of the myorelaxing effect of isoprenaline on the ileum; assay type: cell-based, Dunkin-Hartley guinea-pigs; settings: with isoprenaline 10^-7 mole/l; histamine 3.2 μmoles/l
Description: (cf. R. A. TURNER, "Screening Methods in Pharmacology", Ed. Acad. Press, San Diego, 1965, chapter IV, pages 43-47). […] Inhibition cycle: When the successive contractions induced by the histamine injections have become reproducible, the compound to be tested is injected immediately after the second wash. The contraction induced by the following injection of histamine is measured and compared with the average of the three preceding contractions caused by the repeated injections of histamine (control contractions). From the result obtained, the percentage inhibition of the contraction is calculated. Several cycles of histamine injection are then performed again, until the contractions of the muscle become reproducible again; the muscle is then ready for testing of another compound. The potentiating effect of a compound is measured in the course of a so-called "potentiation" cycle, which comprises three successive inhibition cycles. […] In the course of the second inhibition cycle, the percentage inhibition of the contraction obtained with the compound to be tested, injected alone at a given dose, is determined. In the third inhibition cycle, isoprenaline and the compound to be tested are injected simultaneously, and the percentage inhibition of the contraction is calculated for the dose used of the compound tested. The same experiments are repeated for each of the doses of the compounds tested.

[8] = test system: bronchospasm induced by acetylcholine; assay: bronchospasmolytic activity (Konzett and Roessler), bronchospasm induced by acetylcholine; assay type: in vivo, Dunkin-Hartley guinea-pig; settings: Cavia porcellus, read-out: Doses (ID50), Acetylcholine
Description: as §2

[9] = test system: anaphylactic release of histamine, guinea-pig lung sections; assay: inhibition of the anaphylactic release of histamine (proper effect); assay type: cell-based, Dunkin-Hartley guinea-pigs; settings: Cavia porcellus, in vitro, read-out: Minimum inhibitory dose (MID)
Description: as §1

PMN granulocytes = assay: inhibition of the stimulation of PMN granulocytes (chemiluminescence); assay type: cell-based, Rat; settings: for activity at 1 µM: FMLP 3.2×10^-7 mole/liter
From the text: Polymorphonuclear neutrophil granulocytes (PMN) are cells which are mobilized during inflammatory phenomena and which can be stimulated by various compounds, such as, for example, formylmethionyl-leucylphenylalanine (FMLP) or prostaglandins E (PGE1). The PMN granulocytes respond to these extracellular stimuli with an activation of the oxygen metabolism with release of toxic oxygenated metabolites. An excessive response of the PMN granulocytes may be the cause of a painful inflammation and is also accompanied by a reduction in the level of cyclic adenosine monophosphate (cAMP) in these granulocytes. Consequently, compounds which inhibit the respiratory burst of PMN granulocytes or which increase the level of cAMP can be regarded as very important in the treatment of arthritis and asthma. […] Rat PMN granulocytes (5×10^6 /ml) are preincubated in a phosphate buffer ([…], pH 7.4), containing luminol at a concentration of 10^-5 mole per liter, for 15 minutes at 37° C. and then for 5 minutes in the presence of the compound to be treated at a concentration of 10^-6 mole/liter. […] The luminescence which results from the stimulation is measured by means of an LKB 1251 luminometer according to the method of […] and […] (Infection and Immunology, 37, (1982), 34-39). An experimental cycle lasts 38 seconds. The reaction is repeated 9 times for each compound to be tested and the average of the results obtained is calculated.

cAMP in PMN granulocytes = assay: increase in the level of cAMP in PMN granulocytes; assay type: cell-based, Rat; settings: […]10^-6 mole per liter; PGE1 10^-6 mole/liter; control 4.3
From the text: Polymorphonuclear neutrophil granulocytes (PMN) are cells which are mobilized during inflammatory phenomena and which can be stimulated by various compounds, such as, for example, formylmethionyl-leucylphenylalanine (FMLP) or prostaglandins E (PGE1). The PMN granulocytes respond to these extracellular stimuli with an activation of the oxygen metabolism with release of toxic oxygenated metabolites. An excessive response of the PMN granulocytes may be the cause of a painful inflammation and is also accompanied by a reduction in the level of cyclic adenosine monophosphate (cAMP) in these granulocytes. […] The reaction is then stopped by addition of 1 ml of propanol. After centrifugation at 15,000 g for 3 minutes, the supernatant is recovered and evaporated and the amount of cAMP in the residue is determined by radioimmunological assay according to the process recommended by the supplier of the reagent used for this purpose (Amersham). A control test is carried out under the same conditions, but in the absence of the compound to be tested.

[10] = intravenous, histamine-induced bronchospasm
[11] = intravenous, serotonin-induced bronchospasm
[12] = 3 hours after induction of the Arthus reaction, read-out: Dose (ID30), 3 hours
[13] = 5 hours after induction of the Arthus reaction, read-out: Dose (ID30), 5 hours
[14] = intravenous, acetylcholine-induced bronchospasm
[15] = Rattus norvegicus, 10^-6 mole/l, read-out: Residual chemiluminescence

Row | SMILES | Lethal dose (toxicity, Irwin's test) | Minimum potentiating dose (MPD) [1] | ED50 [2, 10] | ED50 [5, 11] | ED30 [6, 12] | ED30 [6, 13] | Minimum potentiating dose (MPD) [7] | ED50 [8, 14] | minimal effective concentration [9] | activity at 1 µM (PMN granulocytes; [15]) | further results
1 | Cc1nc(NC2CC2)nc(N2CC3CCC(C2)O3)n1.Cl [Compound 9, 2-Cyclopropylamino-4-methyl-6-(8-oxa-3-azabicyclo[3,2,1]oct-3-yl)-1,3,5-triazine hydrochloride] | 297.8 mg/kg | 3.2 µmol/L | 0.4 µmol/kg | 1 µmol/kg | 3.4 µmol/kg | 4.4 µmol/kg | 10.0 µmol/L | 2.1 µmol/kg | 3.2 µM | 82% | Period of remaining on the mat, group 4 ([3]; 4 hours, 3.0 mg/kg i.p. + 0.5 mg scopolamine): 17.3 s; Period of remaining on the mat, group 4 ([3]; 24 hours, 3.0 mg/kg i.p. + 0.5 mg scopolamine): 38.1 s; Period of remaining on the mat, group 4 ([3]; 28 hours, 3.0 mg/kg i.p. + 0.5 mg scopolamine): 65.2 s; Period of remaining on the mat, group 4 ([3]; time 0, 3.0 mg/kg i.p. + 0.5 mg scopolamine): 3.6 s; Learning, average number of trials, group 2 ([4]; 3.0 mg/kg i.p.): 2.9 trials
2 | CCc1nc(NC2CC2)nc(N2CC3CCC(C2)O3)n1 [Compound 10] | 311.8 mg/kg | 0.32 µmol/L | 0.1 µmol/kg | 0.3 µmol/kg |  |  | 1.0 µmol/L | 0.5 µmol/kg | 3.2 µM | 56% | Period of remaining on the mat, group 4 ([3]; 4 hours, […] i.p. + 0.5 mg scopolamine): 20.3 s; Period of remaining on the mat, group 4 ([3]; 24 hours, […] i.p. + 0.5 mg scopolamine): 78.9 s; Period of remaining on the mat, group 4 ([3]; 28 hours, […] i.p. + 0.5 mg scopolamine): 142.0 s; Period of remaining on the mat, group 4 ([3]; time 0, […] i.p. + 0.5 mg scopolamine): 5.7 s
3 | CCCc1nc(NC2CC2)nc(N2CC(O)C2)n1 [Compound 15] | > 498 mg/kg | 3.2 µmol/L | 0.08 µmol/kg | 0.2 µmol/kg | 39 µmol/kg | 4 µmol/kg | 3.2 µmol/L | 0.3 µmol/kg | 10 µM | 70% | Period of remaining on the mat, group 4 ([3]; 4 hours, 2.5 mg/kg i.p. + 0.5 mg scopolamine): 19.5 s; Period of remaining on the mat, group 4 ([3]; 24 hours, 2.5 mg/kg i.p. + 0.5 mg scopolamine): 94.3 s; Period of remaining on the mat, group 4 ([3]; 28 hours, 2.5 mg/kg i.p. + 0.5 mg scopolamine): 112.7 s; Period of remaining on the mat, group 4 ([3]; time 0, 2.5 mg/kg i.p. + 0.5 mg scopolamine): 9.8 s; Learning, average number of trials, group 2 ([4]; 2.5 mg/kg i.p.): 1.9 trials
4 | CNC(=O)Oc1ccc2c(c1)[C@]1(C)CCN(C)[C@@H]1N2C [physostigmine, reference compound] |  |  |  |  |  |  |  |  |  |  | Period of remaining on the mat, group 4 ([3]; 4 hours, 0.4 mg/kg i.p. + 0.5 mg scopolamine): 17.8 s; Period of remaining on the mat, group 4 ([3]; 24 hours, 0.4 mg/kg i.p. + 0.5 mg scopolamine): 56.2 s; Period of remaining on the mat, group 4 ([3]; 28 hours, 0.4 mg/kg i.p. + 0.5 mg scopolamine): 53.4 s; side effects / toxicity at the active dose ([3]; at the dose active against scopolamine amnesia): at a dose which has side effects and is very close to the toxic dose; action against the amnesic effect of scopolamine ([3]; similar to that of the compounds according to the invention): favorable action against the amnesic effect of scopolamine; Period of remaining on the mat, group 4 ([3]; time 0, 0.4 mg/kg i.p. + 0.5 mg scopolamine): 1.9 s; Learning, average number of trials, group 2 ([4]; 0.4 mg/kg i.p.): 2.3 trials
5 | Cn1c(=O)c2[nH]cnc2n(C)c1=O [theophylline, reference compound] |  | 1000.0 µmol/L |  |  | 18 µmol/kg | 10 µmol/kg | 1000.0 µmol/L |  | 100 µM | 100% | ED50 ([2]; iv): 5.6 µmol/kg; ED50 ([5]; iv): 4.6 µmol/kg; Amount of cAMP produced (cAMP in PMN granulocytes): 5.0 picomoles per 10^7 cells; ED50 ([8]; iv): 10 µmol/kg; inhibition of the stimulation of PMN granulocytes (PMN granulocytes; 10^-6 mole/l): completely inactive; activity at 100 µM (PMN granulocytes; Rattus norvegicus, 10^-4 mole/l, read-out: Residual chemiluminescence): 65%

Source: patent publication US5348956A, “Substituted cyclopropylamino-1,3,5-triazines” (UCB S.A., priority 1991, dated 1994)
